In US8569344B2, “N-piperidinyl acetamide derivatives as calcium channel blockers” (Zalicus Pharmaceuticals Ltd., priority 2008, dated 2013):

Legend:
[1] = biological target: T1, human α1H T-type channels (Homo sapiens, UniProt O95180); assay: T-type calcium channel block, whole cell patch clamp in HEK cells (α1H); assay type: cell-based; conditions: HEK cells, patch clamp, mainly non-inactivated protocol; values above 10 μM shown as 10 μM; read-out: T-type Calcium Channel Block α1H IC50
T1 construct: expressed in transfected cells; host or cells: HEK 293
T1 sequence (O95180 whole entry): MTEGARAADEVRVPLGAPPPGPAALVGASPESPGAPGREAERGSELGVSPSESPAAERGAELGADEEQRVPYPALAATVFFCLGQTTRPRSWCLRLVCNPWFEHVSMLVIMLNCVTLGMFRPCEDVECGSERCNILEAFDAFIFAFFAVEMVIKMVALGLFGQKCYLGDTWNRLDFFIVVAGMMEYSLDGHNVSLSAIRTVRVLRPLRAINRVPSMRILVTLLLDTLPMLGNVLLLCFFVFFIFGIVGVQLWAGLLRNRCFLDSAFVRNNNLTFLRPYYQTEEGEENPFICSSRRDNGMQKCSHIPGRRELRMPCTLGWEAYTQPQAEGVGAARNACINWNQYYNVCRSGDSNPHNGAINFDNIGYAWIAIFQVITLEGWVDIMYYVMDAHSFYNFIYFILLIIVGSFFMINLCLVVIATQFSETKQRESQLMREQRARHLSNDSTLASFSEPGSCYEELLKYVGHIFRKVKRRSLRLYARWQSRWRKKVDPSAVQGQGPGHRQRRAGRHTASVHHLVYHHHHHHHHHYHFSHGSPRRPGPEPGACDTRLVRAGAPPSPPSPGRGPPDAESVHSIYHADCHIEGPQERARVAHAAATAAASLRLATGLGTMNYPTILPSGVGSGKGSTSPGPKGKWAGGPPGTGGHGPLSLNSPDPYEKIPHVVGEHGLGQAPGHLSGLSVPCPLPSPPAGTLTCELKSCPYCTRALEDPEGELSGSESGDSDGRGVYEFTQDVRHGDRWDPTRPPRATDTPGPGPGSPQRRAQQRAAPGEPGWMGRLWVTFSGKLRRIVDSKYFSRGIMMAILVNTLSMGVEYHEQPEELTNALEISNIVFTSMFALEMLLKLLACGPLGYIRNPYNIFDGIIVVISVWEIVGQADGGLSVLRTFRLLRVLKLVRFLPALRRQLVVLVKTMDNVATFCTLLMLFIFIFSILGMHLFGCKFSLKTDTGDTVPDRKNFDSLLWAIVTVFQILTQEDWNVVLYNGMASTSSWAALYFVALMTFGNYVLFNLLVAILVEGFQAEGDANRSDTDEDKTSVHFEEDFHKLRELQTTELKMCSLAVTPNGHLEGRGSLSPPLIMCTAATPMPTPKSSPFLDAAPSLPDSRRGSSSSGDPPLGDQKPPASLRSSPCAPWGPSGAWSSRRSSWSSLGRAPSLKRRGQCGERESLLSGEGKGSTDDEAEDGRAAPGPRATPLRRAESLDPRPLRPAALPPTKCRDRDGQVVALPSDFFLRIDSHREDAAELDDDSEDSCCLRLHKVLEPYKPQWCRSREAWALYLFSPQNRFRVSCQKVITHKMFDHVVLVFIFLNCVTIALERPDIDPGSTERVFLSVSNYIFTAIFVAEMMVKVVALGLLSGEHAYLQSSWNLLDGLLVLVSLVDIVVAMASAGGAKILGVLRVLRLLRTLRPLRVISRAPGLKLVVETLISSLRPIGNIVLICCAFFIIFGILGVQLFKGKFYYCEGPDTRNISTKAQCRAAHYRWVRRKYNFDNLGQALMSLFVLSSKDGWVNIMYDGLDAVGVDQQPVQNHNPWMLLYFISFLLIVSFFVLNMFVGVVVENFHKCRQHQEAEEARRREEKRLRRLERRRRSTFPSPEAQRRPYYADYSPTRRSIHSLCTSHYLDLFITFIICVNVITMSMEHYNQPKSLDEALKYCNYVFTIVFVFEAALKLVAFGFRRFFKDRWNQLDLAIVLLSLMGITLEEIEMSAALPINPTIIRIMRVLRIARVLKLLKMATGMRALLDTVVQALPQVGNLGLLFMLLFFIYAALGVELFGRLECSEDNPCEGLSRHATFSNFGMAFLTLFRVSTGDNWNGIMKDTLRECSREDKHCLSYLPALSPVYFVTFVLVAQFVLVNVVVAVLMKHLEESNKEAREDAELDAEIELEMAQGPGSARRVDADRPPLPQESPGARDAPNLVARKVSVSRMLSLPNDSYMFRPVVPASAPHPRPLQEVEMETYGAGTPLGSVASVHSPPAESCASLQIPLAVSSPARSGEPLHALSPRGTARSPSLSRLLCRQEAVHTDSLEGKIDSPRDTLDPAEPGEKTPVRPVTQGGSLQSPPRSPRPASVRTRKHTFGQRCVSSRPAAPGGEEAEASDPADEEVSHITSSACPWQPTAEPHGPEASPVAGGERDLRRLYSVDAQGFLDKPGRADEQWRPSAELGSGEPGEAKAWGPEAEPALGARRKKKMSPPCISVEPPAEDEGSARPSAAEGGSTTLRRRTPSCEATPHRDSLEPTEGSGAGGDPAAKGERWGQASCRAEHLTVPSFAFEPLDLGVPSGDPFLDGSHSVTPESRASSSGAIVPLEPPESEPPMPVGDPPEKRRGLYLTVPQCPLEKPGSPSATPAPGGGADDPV

[2] = biological target: T2, human α1G T-type channels (Homo sapiens, UniProt O43497); assay: T-type calcium channel block, whole cell patch clamp in HEK cells (α1G); assay type: cell-based; conditions: HEK cells, patch clamp, mainly non-inactivated protocol; values above 10 μM shown as 10 μM, below 0.30 μM shown as 0.30 μM; read-out: T-type Calcium Channel Block α1G IC50
T2 construct: expressed in transfected cells; host or cells: HEK 293
T2 sequence (O43497 whole entry): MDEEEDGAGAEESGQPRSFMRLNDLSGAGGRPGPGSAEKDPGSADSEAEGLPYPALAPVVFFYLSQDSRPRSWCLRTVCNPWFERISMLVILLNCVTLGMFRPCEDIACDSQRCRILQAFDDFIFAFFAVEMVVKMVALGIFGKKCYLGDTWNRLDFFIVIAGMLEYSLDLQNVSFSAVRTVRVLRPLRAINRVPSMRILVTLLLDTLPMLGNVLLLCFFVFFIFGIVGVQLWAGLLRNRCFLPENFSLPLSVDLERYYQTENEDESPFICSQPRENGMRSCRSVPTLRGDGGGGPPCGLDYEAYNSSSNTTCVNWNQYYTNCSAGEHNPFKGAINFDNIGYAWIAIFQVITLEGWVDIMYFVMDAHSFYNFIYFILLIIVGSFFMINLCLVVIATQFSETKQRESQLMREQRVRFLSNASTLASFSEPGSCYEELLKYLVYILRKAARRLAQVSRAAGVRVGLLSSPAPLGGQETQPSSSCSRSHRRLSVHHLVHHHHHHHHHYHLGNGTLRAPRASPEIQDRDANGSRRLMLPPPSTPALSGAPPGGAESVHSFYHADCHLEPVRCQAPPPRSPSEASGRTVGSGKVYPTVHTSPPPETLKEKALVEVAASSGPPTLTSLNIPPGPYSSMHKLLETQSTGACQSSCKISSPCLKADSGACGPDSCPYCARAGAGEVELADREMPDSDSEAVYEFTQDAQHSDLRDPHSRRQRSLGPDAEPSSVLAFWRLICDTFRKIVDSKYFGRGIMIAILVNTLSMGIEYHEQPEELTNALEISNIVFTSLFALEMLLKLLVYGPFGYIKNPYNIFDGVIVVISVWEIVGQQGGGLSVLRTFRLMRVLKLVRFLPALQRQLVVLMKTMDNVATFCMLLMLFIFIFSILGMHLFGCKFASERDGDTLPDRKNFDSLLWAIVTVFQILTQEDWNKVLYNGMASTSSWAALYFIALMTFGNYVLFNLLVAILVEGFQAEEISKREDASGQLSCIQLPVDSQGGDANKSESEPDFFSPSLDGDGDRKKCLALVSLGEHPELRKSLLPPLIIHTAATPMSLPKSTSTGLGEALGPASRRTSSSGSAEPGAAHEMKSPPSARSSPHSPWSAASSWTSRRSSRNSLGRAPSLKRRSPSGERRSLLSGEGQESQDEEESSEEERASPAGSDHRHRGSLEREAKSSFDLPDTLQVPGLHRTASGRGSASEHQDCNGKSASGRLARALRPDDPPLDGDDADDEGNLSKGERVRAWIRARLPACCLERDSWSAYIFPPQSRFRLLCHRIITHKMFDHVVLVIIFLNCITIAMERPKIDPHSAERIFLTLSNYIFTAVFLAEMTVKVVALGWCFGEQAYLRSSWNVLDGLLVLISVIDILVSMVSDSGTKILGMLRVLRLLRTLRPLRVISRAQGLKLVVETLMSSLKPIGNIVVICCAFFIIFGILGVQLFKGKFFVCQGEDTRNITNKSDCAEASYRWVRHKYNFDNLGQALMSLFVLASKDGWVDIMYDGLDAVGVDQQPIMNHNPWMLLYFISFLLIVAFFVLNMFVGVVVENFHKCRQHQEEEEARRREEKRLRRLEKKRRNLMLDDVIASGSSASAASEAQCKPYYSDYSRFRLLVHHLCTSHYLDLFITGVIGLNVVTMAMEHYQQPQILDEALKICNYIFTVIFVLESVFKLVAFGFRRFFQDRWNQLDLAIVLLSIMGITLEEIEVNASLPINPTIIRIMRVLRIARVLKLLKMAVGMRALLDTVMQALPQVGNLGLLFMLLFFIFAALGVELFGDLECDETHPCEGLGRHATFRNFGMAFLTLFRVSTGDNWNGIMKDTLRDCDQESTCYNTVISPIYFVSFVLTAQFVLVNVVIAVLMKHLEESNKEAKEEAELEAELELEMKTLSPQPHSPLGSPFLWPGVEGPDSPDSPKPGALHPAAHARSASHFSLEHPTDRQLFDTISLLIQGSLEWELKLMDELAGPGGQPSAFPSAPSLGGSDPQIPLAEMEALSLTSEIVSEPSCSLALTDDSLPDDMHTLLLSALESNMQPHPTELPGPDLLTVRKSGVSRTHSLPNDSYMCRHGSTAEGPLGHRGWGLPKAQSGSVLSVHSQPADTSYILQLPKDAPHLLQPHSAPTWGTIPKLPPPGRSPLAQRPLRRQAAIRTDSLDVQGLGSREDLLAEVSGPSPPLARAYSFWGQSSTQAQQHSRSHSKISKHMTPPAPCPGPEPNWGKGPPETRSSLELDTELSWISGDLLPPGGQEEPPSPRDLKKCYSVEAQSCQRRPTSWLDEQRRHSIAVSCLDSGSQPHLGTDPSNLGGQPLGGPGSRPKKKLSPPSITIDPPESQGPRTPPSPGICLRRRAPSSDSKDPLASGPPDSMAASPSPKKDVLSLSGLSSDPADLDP

Structure (SMILES)	IC50 [1]	IC50 [2]
O=C(NCC1CCN(C(=O)[C@@H]2CCCCN2)CC1)c1cc(C(F)(F)F)cc(C(F)(F)F)c1 [Compound 88, (S)-N-((1-(piperidine-2-carbonyl)piperidin-4-yl)methyl)-3,5-bis(trifluoromethyl)benzamide]	> 10 µM	> 10 µM
CC(C)(C)C(O)CN1CCC(CC(=O)Nc2cc(F)cc(C(F)(F)F)c2)CC1 (stereo not drawn) [Compound 169, N-(3-fluoro-5-(trifluoromethyl)phenyl)-2-(1-(2-hydroxy-3,3-dimethylbutyl)piperidin-4-yl)acetamide]	0.23 µM	< 0.3 µM
Cc1ccc(-c2csc(NC(=O)CC3CCN(CC(O)C(C)(C)C)CC3)n2)cc1 (stereo not drawn) [Compound 172, 2-(1-(2-hydroxy-3,3-dimethylbutyl)piperidin-4-yl)-N-(4-p-tolylthiazol-2-yl)acetamide]	> 10 µM	1.62 µM
CC(C)(C)C(O)CN1CCC(CC(=O)NCc2ccc(Oc3ccccc3)cc2)CC1 (stereo not drawn) [Compound 174, 2-(1-(2-hydroxy-3,3-dimethylbutyl)piperidin-4-yl)-N-(4-phenoxybenzyl) acetamide]	> 10 µM	2.48 µM
O=C(CC1CCN(C(=O)[C@@H]2CCCCN2)CC1)Nc1cc(C(F)(F)F)cc(C(F)(F)F)c1 [Compound 195, (S)-N-(3,5-bis(trifluoromethyl)phenyl)-2-(1-(piperidine-2-carbonyl)piperidin-4-yl)acetamide]	1.97 µM	4.78 µM
CC(C)(C)OC(=O)NC(CN1CCC(CC(=O)NCc2cc(Cl)cc(Cl)c2)CC1)C(C)(C)C (stereo not drawn) [Compound 198, tert-butyl 1-(4-(2-(3,5-dichloro-benzylamino)-2-oxoethyl)piperidin-1-yl)-3,3-dimethylbutan-2-ylcarbamate]	1.3 µM	0.4 µM
CC(C)(C)C(CN1CCC(CC(=O)NC(c2cccc(F)c2)c2cccc(F)c2)CC1)NS(=O)(=O)C1CC1 (stereo not drawn) [Compound 221, N-(bis(3-fluorophenyl)methyl)-2-(1-(2-(cyclopropanesulfonamido)-3,3-dimethylbutyl)piperidin-4-yl)acetamide]	> 10 µM	4.08 µM
CC(C)S(=O)(=O)NC(CN1CCC(CC(=O)NC(c2cccc(F)c2)c2cccc(F)c2)CC1)C(C)(C)C (stereo not drawn) [Compound 222, N-(bis(3-fluorophenyl)methyl)-2-(1-(3,3-dimethyl-2-(1-methylethylsulfonamido)butyl)piperidin-4-yl)acetamide]	> 10 µM	2.03 µM
CCOC(=O)NC(CN1CCC(CC(=O)NCc2cc(Cl)cc(Cl)c2)CC1)C(C)(C)C (stereo not drawn) [Compound 224, ethyl 1-(4-(2-(3,5-dichlorobenzyl-amino)-2-oxoethyl)piperidin-1-yl)-3,3-dimethylbutan-2-ylcarbamate]	6.19 µM	3.76 µM
CC(C)COC(=O)NC(CN1CCC(CC(=O)NCc2cc(Cl)cc(Cl)c2)CC1)C(C)(C)C (stereo not drawn) [Compound 225, isobutyl 1-(4-(2-(3,5-dichlorobenzyl-amino)-2-oxoethyl)piperidin-1-yl)-3,3-dimethylbutan-2-ylcarbamate]	0.77 µM	0.52 µM
O=C(NCC1CCN(C(=O)CN2CCC(F)(F)C2)CC1)c1cc(C(F)(F)F)cc(C(F)(F)F)c1 [Compound 226, N-((1-(2-(3,3-difluoropyrrolidin-1-yl)acetyl)piperidin-4-yl)methyl)-3,5-bis(trifluoromethyl)benzamide]	> 10 µM	> 10 µM
CC(C)(C)Oc1cccc(C(=O)NCC2CCN(CCNS(=O)(=O)C3CC3)CC2)c1 [Compound 229, 3-tert-butoxy-N-((1-(2-(cyclopropanesulfonamido)ethyl)piperidin-4-yl)methyl)benzamide]	> 10 µM	> 10 µM
O=C(/C=C/c1cc(F)cc(F)c1)NCC1CCN(CCNS(=O)(=O)C2CC2)CC1 [Compound 231, (E)-N-((1-(2-(cyclopropanesulfonamido)ethyl)piperidin-4-yl)methyl)-3-(3,5-difluorophenyl)acrylamide]	> 10 µM	> 10 µM

The next lines start with the values.

IC50 [1]	IC50 [2]	Structure (SMILES)
1.17 µM	1.31 µM	CC(C)(C)OC(=O)NCCN1CCC(CNC(=O)c2cccc(C(F)(F)F)c2)CC1 [Compound 39, tert-butyl 2-(4-((3-(trifluoromethyl)benzamido)methyl)piperidin-1-yl)ethylcarbamate]
0.16 µM	< 0.3 µM	CC(C)(C)OC(=O)NCCN1CCC(CNC(=O)c2cc(Cl)cc(C(F)(F)F)c2)CC1 [Compound 40, tert-butyl 2-(4-((3-chloro-5-(trifluoromethyl)benzamido)methyl)piperidin-1-yl)ethylcarbamate]
0.15 µM	< 0.3 µM	CC(C)(C)OC(=O)NCCN1CCC(CNC(=O)c2cc(Br)cc(C(F)(F)F)c2)CC1 [Compound 41, tert-butyl 2-(4-((3-bromo-5-(trifluoromethyl)benzamido)methyl)piperidin-1-yl)ethylcarbamate]
0.76 µM	1.64 µM	Cc1cc(C)cc(C(=O)NCC2CCN(CCNC(=O)OC(C)(C)C)CC2)c1 [Compound 42, tert-butyl 2-(4-((3,5-dimethylbenzamido)methyl)piperidin-1-yl)ethylcarbamate]
0.15 µM	< 0.3 µM	CC(C)(C)OC(=O)NCCN1CCC(CNC(=O)c2cc(Cl)cc(Cl)c2)CC1 [Compound 43, tert-butyl 2-(4-((3,5-dichlorobenzamido)methyl)piperidin-1-yl)ethylcarbamate]
0.32 µM	0.62 µM	CC(C)(C)OC(=O)NCCN1CCC(CNC(=O)c2cccc(OC(F)(F)F)c2)CC1 [Compound 44, tert-butyl 2-(4-((3-(trifluoromethoxy)benzamido)methyl)piperidin-1-yl)ethylcarbamate]
0.88 µM	3.11 µM	CC(C)(C)OC(=O)NCCN1CCC(CNC(=O)c2cc(F)cc(F)c2)CC1 [Compound 47, tert-butyl 2-(4-((3,5-difluorobenzamido)methyl)piperidin-1-yl)ethylcarbamate]
0.79 µM	1.57 µM	CC(C)(C)OC(=O)NCCN1CCC(CNC(=O)c2cccc(Cl)c2)CC1 [Compound 48, tert-butyl 2-(4-((3-chlorobenzamido)methyl)piperidin-1-yl)ethylcarbamate]
7.3 µM	0.34 µM	CC(C)(C)OC(=O)NCCN1CCC(CNC(=O)c2cc(C(C)(C)C)cc(C(C)(C)C)c2)CC1 [Compound 49, tert-butyl 2-(4-((3,5-di-tert-butylbenzamido)methyl)piperidin-1-yl)ethylcarbamate]
> 10 µM	1.05 µM	CC(C)(C)OC(=O)NCCN1CCC(CNC(=O)c2ccc(Oc3ccccc3)cc2)CC1 [Compound 57, tert-buyl 2-(4-((4-phenoxybenzamido)methyl)piperidin-1-yl)ethylcarbamate]
> 10 µM	4.1 µM	CC(C)(C)C(C)(O)C(=O)N1CCC(CNC(=O)c2cc(C(F)(F)F)cc(C(F)(F)F)c2)CC1 (stereo not drawn) [Compound 89, N-((1-(2-hydroxy-2,3,3-trimethylbutanoyl)piperidin-4-yl)methyl)-3,5-bis(trifluoromethyl)benzamide]
> 10 µM	> 10 µM	CC(C)(C)OC(=O)NC(CN1CCC(CC(=O)NCCc2c[nH]c3ccc(F)cc23)CC1)C(C)(C)C (stereo not drawn) [Compound 196, tert-butyl 1-(4-(2-(2-(5-fluoro-1H-indol-3-yl)ethylamino)-2-oxoethyl)piperidin-1-yl)-3,3-dimethylbutan-2-ylcarbamate]
2.35 µM	1.67 µM	O=C(NCC1CCN(CCNS(=O)(=O)C2CC2)CC1)c1cccc(C(F)(F)F)c1 [Compound 228, N-((1-(2-(cyclopropanesulfonamido)ethyl)piperidin-4-yl)methyl)-3-(trifluoromethyl)benzamide]
0.85 µM	4.76 µM	O=C(NCC1CCN(CCNS(=O)(=O)C2CC2)CC1)c1cc(F)cc(C(F)(F)F)c1 [Compound 230, N-((1-(2-(cyclopropanesulfonamido)ethyl)piperidin-4-yl)methyl)-3-fluoro-5-(trifluoromethyl)benzamide]
2.87 µM	5.01 µM	O=C(NCC1CCN(CCNS(=O)(=O)C2CC2)CC1)c1ccc(OC(F)(F)F)cc1 [Compound 232, N-((1-(2-(cyclopropanesulfonamido)ethyl)piperidin-4-yl)methyl)-4-(trifluoromethoxy)benzamide]
1.38 µM	2.04 µM	Cc1cc(C)cc(C(=O)NCC2CCN(CCNS(=O)(=O)C3CC3)CC2)c1 [Compound 233, N-((1-(2-(cyclopropanesulfonamido)ethyl)piperidin-4-yl)methyl)-3,5-dimethylbenzamide]
0.97 µM	1.45 µM	O=C(NCC1CCN(CCNS(=O)(=O)C2CC2)CC1)c1cccc(OC(F)(F)F)c1 [Compound 234, N-((1-(2-(cyclopropanesulfonamido)ethyl)piperidin-4-yl)methyl)-3-(trifluoromethoxy)benzamide]
0.44 µM	< 0.3 µM	COc1cc(C(=O)NCC2CCN(CCNS(=O)(=O)C3CC3)CC2)cc(C(F)(F)F)c1 [Compound 235, N-((1-(2-(cyclopropanesulfonamido)ethyl)piperidin-4-yl)methyl)-3-methoxy-5-(trifluoromethyl)benzamide]
1.72 µM	0.86 µM	CC(C)S(=O)(=O)NCCN1CCC(CNC(=O)c2cccc(Cl)c2)CC1 [Compound 236, 3-chloro-N-((1-(2-(1-methylethylsulfonamido)ethyl)piperidin-4-yl)methyl)benzamide]
> 10 µM	> 10 µM	CC(C)(C)c1ccc(C(=O)NCC2CCN(CCNS(=O)(=O)C3CC3)CC2)cc1 [Compound 238, 4-tert-butyl-N-((1-(2-(cyclopropanesulfonamido)ethyl)piperidin-4-yl)methyl)benzamide]
